From ChEMBL document CHEMBL1212829, “Efficient synthesis of Hsp90 inhibitor dimers as potential antitumor agents” (Bioorg Med Chem, 2010)

Columns and labels:
SK-BR-3 = assay: Cytotoxicity against human SKBR3 cells after 72 hrs by crystal violet assay; type: functional, cell-based; details: SK-BR-3, 72 h
Heat shock protein HSP90 = Heat shock protein HSP90 (Homo sapiens, UniProt P07900+P08238); assay: Inhibition of Hsp90 in human SKBR3 cells assessed as Her2 degradation after 24 hrs by Western blotting; type: cell-based; details: sk-br-3
[1] = target: Heat shock protein HSP 90-alpha (Homo sapiens, UniProt P07900); assay: Displacement of biotin-labeled geldanamycin from N-terminal His-tagged human recombinant HSP90alpha expressed in Escherichia coli

| SMILES | IC50 (SK-BR-3) | IC50 (Heat shock protein HSP90) | IC50 [1] |
| --- | --- | --- | --- |
| Nc1ncnc2c1nc(Sc1cc3c(cc1Br)OCO3)n2CCCc1cn(CCOCCOCCOCCOCCOCCOCCOCCn2cc(CCCn3c(Sc4cc5c(cc4Br)OCO5)nc4c(N)ncnc43)nn2)nn1 | 4800 nM | 9200 nM | 1100 nM |
| Nc1ncnc2c1nc(Sc1cc3c(cc1Br)OCO3)n2CCCc1cn(CCCO)nn1 | 1800 nM | 3900 nM | 490 nM |
| Nc1ncnc2c1nc(Sc1cc3c(cc1Br)OCO3)n2CCCCc1cn(CCOCCOCCOCCOCCOCCOCCOCCn2cc(CCCCn3c(Sc4cc5c(cc4Br)OCO5)nc4c(N)ncnc43)nn2)nn1 | 4800 nM | 4200 nM | 3100 nM |
| Nc1ncnc2c1nc(Sc1cc3c(cc1Br)OCO3)n2CCCc1cn(CCOCCOCCOCCOCCOCCn2cc(CCCn3c(Sc4cc5c(cc4Br)OCO5)nc4c(N)ncnc43)nn2)nn1 | 3800 nM | 6300 nM | 650 nM |
| Nc1ncnc2c1nc(Sc1cc3c(cc1Br)OCO3)n2CCCCc1cn(CCOCCOCCOCCOCCOCCn2cc(CCCCn3c(Sc4cc5c(cc4Br)OCO5)nc4c(N)ncnc43)nn2)nn1 | 3000 nM | 5200 nM | 5100 nM |
| C#CCCCn1c(Sc2cc3c(cc2Br)OCO3)nc2c(N)ncnc21 | 330 nM | 460 nM | 300 nM |
| Nc1ncnc2c1nc(Sc1cc3c(cc1Br)OCO3)n2CCCCc1cn(CCCO)nn1 | 1400 nM | 2900 nM | 510 nM |
| Nc1ncnc2c1nc(Sc1cc3c(cc1Br)OCO3)n2CCCc1cn(CCOCCOCCOCCOCCOCCOCCn2cc(CCCn3c(Sc4cc5c(cc4Br)OCO5)nc4c(N)ncnc43)nn2)nn1 | 5600 nM | 7100 nM | 790 nM |
| C#CCCCCn1c(Sc2cc3c(cc2Br)OCO3)nc2c(N)ncnc21 | 1400 nM | 2600 nM | 1400 nM |
| Nc1ncnc2c1nc(Sc1cc3c(cc1Br)OCO3)n2CCCCc1cn(CCOCCOCCOCCOCCOCCOCCn2cc(CCCCn3c(Sc4cc5c(cc4Br)OCO5)nc4c(N)ncnc43)nn2)nn1 | 5000 nM | 4700 nM | 3400 nM |
